Assay results: patent US12613236B2, “Lung fibrosis model and methods of using the same” (DUKE UNIVERSITY, priority 2019, dated 2026)

Assays:
[1] = test system: TP53 signaling; assay: Nutlin-3a treatment after bleomycin injury in Sftpc-CreER; R26R-tdTomato mice, AGER immunostaining; settings: uninjured (PBS) mice that received Nutlin-3a; 20 mg kg-1 d-1 intraperitoneal for ten days
[2] = target: T1, Runx1 (Mus musculus, UniProt Q03347); assay: Lipofibroblast culture with TGF-B induced myofibrogenesis, Runx1 pharmacologic inhibition; assay type: cell-based; settings: lipofibroblasts cultured in the presence of Ro 5-3335 and TGF-B for 48 hours
T1 construct: Lipofibroblasts were cultured in the presence of Ro 5-3335 and TGF-B for 48 hours; endogenous in cells; host or cells: primary lung lipofibroblasts (mouse, inferred) in culture
T1 sequence (Q03347 whole entry): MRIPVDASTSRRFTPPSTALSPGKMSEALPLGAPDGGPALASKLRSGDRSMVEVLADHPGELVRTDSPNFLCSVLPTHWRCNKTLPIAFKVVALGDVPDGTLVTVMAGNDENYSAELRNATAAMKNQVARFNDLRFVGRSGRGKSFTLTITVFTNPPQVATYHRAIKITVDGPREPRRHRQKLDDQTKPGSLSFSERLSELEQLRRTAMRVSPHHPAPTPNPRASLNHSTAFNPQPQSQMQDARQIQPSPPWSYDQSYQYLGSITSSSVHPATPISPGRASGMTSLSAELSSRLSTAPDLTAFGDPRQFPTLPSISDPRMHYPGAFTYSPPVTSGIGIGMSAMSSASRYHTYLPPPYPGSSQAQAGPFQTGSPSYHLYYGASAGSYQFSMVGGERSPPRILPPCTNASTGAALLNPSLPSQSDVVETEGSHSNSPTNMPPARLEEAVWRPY

Compound | AGER+Sftpc-tdt+ cells in uninjured lungs [1] | PDGFRA expression and cell shape of lipofibroblasts [2] | aSMA expression and myofibrotic conversion [2]
COc1ccc(C2=N[C@@H](c3ccc(Cl)cc3)[C@@H](c3ccc(Cl)cc3)N2C(=O)N2CCNC(=O)C2)c(OC(C)C)c1 [Nutlin-3a] | no AGER+Sftpc-tdt+ cells |  | 
O=C1CN=C(c2ccc[nH]2)c2cc(Cl)ccc2N1 [Ro 5-3335] |  | maintained PDGFRA expression and their stellate shape | virtually no aSMA expression and myofibrotic conversion
